Experimental data taken from US20160194358A1, “LINEAR PEPTIDE ANTIBIOTCS” (priority 2013, published 2016).
In brackets after ≈: the same amount, converted by molar mass. Read-outs that look alike come from different tables or passages of the source. Where a SMILES comes first, the peptide text is derived from it. The star is where a group is joined. boroAla((+)-pinanediol) = C[C@H](N*)B1O[C@@H]2C[C@@H]3C[C@@H](C3(C)C)[C@]2(C)O1; Propanoyl(3-decylamino) = CCCCCCCCCCNCCC(=O)*

Assays:
[1] = test system: methicillin resistant Staphylococcus aureus (MRSA) strain USA300 (NRS384); conditions: MRSA USA300 (NRS384); 35° C., 22 hours
How it was run: (§1)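 CLSI broth microdilution in cation-adjusted Mueller Hinton Broth with 0.002% Tween-80, two-fold dilutions starting at 64 μg/ml.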

[2] = test system: Escherichia coli strain MC4100 IMP-4213, which harbors an LptD mutation; conditions: E. coli MC4100 IMP-4213; 35° C., 22 hours
How it was run: as §1

MRSA strain USA300 [3] = conditions: Compound 217 with imipenem, synergy defined as sum of FICs ≦0.5
Procedure: In this assay in each axis of a 96-well plate contains a 2-fold dilution of a given agent, such that each well contains a unique combination of the agents being tested.
To create a checkerboard dilution scheme, imipenem was diluted in Mueller Hinton II Broth+0.002% Tween-80 to twice the final desired concentration, and six 2-fold serial dilutions were performed in the same media yielding seven imipenem concentrations. Dilutions of Compound 217 were prepared similarly except that ten dilutions were performed for a total of eleven concentrations. For each concentration of imipenem, 50 uL aliquots were transferred to columns 1-12 of a given row of a 96-well clear polypropylene assay plate. For each concentration of Compound 217, 50 uL were transferred to rows A-H of a given column of the same plate. […]
MRSA strain USA300 was grown overnight at 35° C. on Mueller Hinton Agar plates, and colonies were suspended in Mueller Hinton II Broth+0.002% Tween-80 to a final density of 1*10^7 cfu/ml. […] The plate was incubated at 35° C. for 22 hours after which growth was determined via visual inspection. For each sub-MIC concentration of imipenem, the concentration of Compound 217 required to prevent visible growth was recorded, and the fractional inhibitor concentration (FIC) of each agent was calculated by dividing the concentration of each agent by MIC of the agent alone. […]

MRSA strain USA300 [4] = test system: MRSA strain USA300
MRSA strain USA300 [5] = conditions: 0.5 ug/mL imipenem plus 0.125 ug/mL Compound 217
Procedure: Time-kill experiments were performed in 96-well incubation plates using Mueller Hinton II Broth+0.002% Tween-80 as the growth media. Individual wells contained imipenem alone, Compound 217 alone, or a combination of both agents at various concentrations. MRSA strain USA300 was grown overnight at 35° C. on Mueller Hinton Agar plates, and colonies were suspended in Mueller Hinton II Broth+0.002% Tween-80 to a final density of 2*10^8 cfu/mL. To each well of the incubation plates, 5 uL of this suspension were added, resulting in an initial density of 1*10^7 cfu/mL. Plates were incubated at 35° C., and at various time points 30 μl samples were removed, mixed 1:1 with 25 mg/ml activated carbon, serially diluted in sterile phosphate buffered saline supplemented with 0.05% Tween 20, and spotted onto Mueller Hinton Agar plates to enable cfu quantification. Colonies were counted and the cfu/ml at each time point calculated by based on the dilution factor and volume spotted.

[6] = MRSA USA300, partner Amoxicillin/Clav at 1/4x its MIC
[7] = MRSA USA300, partner Ampicillin at 1/4x its MIC
[8] = MRSA USA300, partner Azlocillin at 1/4x its MIC
[9] = MRSA USA300, partner Biapenem at 1/4x its MIC
[10] = MRSA USA300, partner Carbenicillin at 1/4x its MIC
[11] = MRSA USA300, partner Cefaclor at 1/4x its MIC
[12] = MRSA USA300, partner Cefamandole at 1/4x its MIC
[13] = MRSA USA300, partner Cefazolin at 1/4x its MIC
[14] = MRSA USA300, partner Cefdinir at 1/4x its MIC
[15] = MRSA USA300, partner Cefepime at 1/4x its MIC
[16] = MRSA USA300, partner Cefixime at 1/4x its MIC
[17] = MRSA USA300, partner Cefmetazole at 1/4x its MIC
[18] = MRSA USA300, partner Cefonicid at 1/4x its MIC
[19] = MRSA USA300, partner Cefotaxime at 1/4x its MIC
[20] = MRSA USA300, partner Cefotetan at 1/4x its MIC
[21] = MRSA USA300, partner Cefoxitin at 1/4x its MIC
[22] = MRSA USA300, partner Cefpodoxime at 1/4x its MIC
[23] = MRSA USA300, partner Cefprozil at 1/4x its MIC
[24] = MRSA USA300, partner Ceftazidime at 1/4x its MIC
[25] = MRSA USA300, partner Ceftizoxime at 1/4x its MIC
[26] = MRSA USA300, partner Ceftriaxone at 1/4x its MIC
[27] = MRSA USA300, partner Cephalothin at 1/4x its MIC
[28] = MRSA USA300, partner Doripenem at 1/4x its MIC
[29] = MRSA USA300, partner Ertapenem at 1/4x its MIC
[30] = MRSA USA300, partner Faropenem at 1/4x its MIC
[31] = MRSA USA300, partner Imipenem at 1/4x its MIC
[32] = MRSA USA300, partner Mecillinam at 1/4x its MIC
[33] = MRSA USA300, partner Meropenem at 1/4x its MIC
[34] = MRSA USA300, partner Methicillin at 1/4x its MIC
[35] = MRSA USA300, partner Mezlocillin at 1/4x its MIC
[36] = MRSA USA300, partner Moxalactam at 1/4x its MIC
[37] = MRSA USA300, partner Oxacillin at 1/4x its MIC
[38] = MRSA USA300, partner Piperacillin/tazobactam at 1/4x its MIC
[39] = MRSA USA300, partner Ticarcillin at 1/4x its MIC

Structure (SMILES): CCCCCCCCCCNCCC(=O)N[C@@H](CCCCN)C(=O)N[C@H](C(=O)N[C@@H](C)C(=O)N[C@@H](CCCCN)C(=O)N[C@@H](C)B1O[C@@H]2C[C@@H]3C[C@@H](C3(C)C)[C@]2(C)O1)[C@@H](C)O [Compound 217] ({Propanoyl(3-decylamino)}-KTAK-{boroAla((+)-pinanediol)})
- MIC (μg/mL) S. aureus [1]: 0.31 µg/mL (≈ 0.359 µM)
- MIC (μg/mL) E. coli [2]: 23 µg/mL (≈ 26.7 µM)
- sum of the FICs (MRSA strain USA300 [3]): < 0.5
- Compound 217 SIC (MRSA strain USA300 [4]; [6]): 0.125 µg/mL
- Fold reduction in Compound 217 MIC (MRSA strain USA300 [4]; [6]): 4
- Compound 217 SIC (MRSA strain USA300 [4]; [7]): 0.25 µg/mL
- Fold reduction in Compound 217 MIC (MRSA strain USA300 [4]; [7]): 2
- Compound 217 SIC (MRSA strain USA300 [4]; [8]): 0.125 µg/mL
- Fold reduction in Compound 217 MIC (MRSA strain USA300 [4]; [8]): 4
- Compound 217 SIC (MRSA strain USA300 [4]; [9]): 0.0156 µg/mL
- Fold reduction in Compound 217 MIC (MRSA strain USA300 [4]; [9]): 32
- Compound 217 SIC (MRSA strain USA300 [4]; [10]): 0.125 µg/mL
- Fold reduction in Compound 217 MIC (MRSA strain USA300 [4]; [10]): 4
- Compound 217 SIC (MRSA strain USA300 [4]; [11]): 0.125 µg/mL
- Fold reduction in Compound 217 MIC (MRSA strain USA300 [4]; [11]): 4
- Compound 217 SIC (MRSA strain USA300 [4]; [12]): 0.125 µg/mL
- Fold reduction in Compound 217 MIC (MRSA strain USA300 [4]; [12]): 4
- Compound 217 SIC (MRSA strain USA300 [4]; [13]): 0.0625 µg/mL
- Fold reduction in Compound 217 MIC (MRSA strain USA300 [4]; [13]): 8
- Compound 217 SIC (MRSA strain USA300 [4]; [14]): 0.0078 µg/mL
- Fold reduction in Compound 217 MIC (MRSA strain USA300 [4]; [14]): 64
- Compound 217 SIC (MRSA strain USA300 [4]; [15]): 0.03125 µg/mL
- Fold reduction in Compound 217 MIC (MRSA strain USA300 [4]; [15]): 16
- Compound 217 SIC (MRSA strain USA300 [4]; [16]): 0.0625 µg/mL
- Fold reduction in Compound 217 MIC (MRSA strain USA300 [4]; [16]): 8
- Compound 217 SIC (MRSA strain USA300 [4]; [17]): 0.125 µg/mL
- Fold reduction in Compound 217 MIC (MRSA strain USA300 [4]; [17]): 4
- Compound 217 SIC (MRSA strain USA300 [4]; [18]): 0.125 µg/mL
- Fold reduction in Compound 217 MIC (MRSA strain USA300 [4]; [18]): 4
- Compound 217 SIC (MRSA strain USA300 [4]; [19]): 0.0625 µg/mL
- Fold reduction in Compound 217 MIC (MRSA strain USA300 [4]; [19]): 8
- Compound 217 SIC (MRSA strain USA300 [4]; [20]): 0.125 µg/mL
- Fold reduction in Compound 217 MIC (MRSA strain USA300 [4]; [20]): 4
- Compound 217 SIC (MRSA strain USA300 [4]; [21]): 0.125 µg/mL
- Fold reduction in Compound 217 MIC (MRSA strain USA300 [4]; [21]): 4
- Compound 217 SIC (MRSA strain USA300 [4]; [22]): 0.0625 µg/mL
- Fold reduction in Compound 217 MIC (MRSA strain USA300 [4]; [22]): 8
- Compound 217 SIC (MRSA strain USA300 [4]; [23]): 0.125 µg/mL
- Fold reduction in Compound 217 MIC (MRSA strain USA300 [4]; [23]): 4
- Compound 217 SIC (MRSA strain USA300 [4]; [24]): 0.125 µg/mL
- Fold reduction in Compound 217 MIC (MRSA strain USA300 [4]; [24]): 4
- Compound 217 SIC (MRSA strain USA300 [4]; [25]): 0.0625 µg/mL
- Fold reduction in Compound 217 MIC (MRSA strain USA300 [4]; [25]): 8
- Compound 217 SIC (MRSA strain USA300 [4]; [26]): 0.03125 µg/mL
- Fold reduction in Compound 217 MIC (MRSA strain USA300 [4]; [26]): 16
- Compound 217 SIC (MRSA strain USA300 [4]; [27]): 0.03125 µg/mL
- Fold reduction in Compound 217 MIC (MRSA strain USA300 [4]; [27]): 16
- Compound 217 SIC (MRSA strain USA300 [4]; [28]): 0.03125 µg/mL
- Fold reduction in Compound 217 MIC (MRSA strain USA300 [4]; [28]): 16
- Compound 217 SIC (MRSA strain USA300 [4]; [29]): 0.125 µg/mL
- Fold reduction in Compound 217 MIC (MRSA strain USA300 [4]; [29]): 4
- Compound 217 SIC (μg/ml) (MRSA strain USA300 [4]; [30]): ≦0.0039 μg/ml
- Fold reduction in Compound 217 MIC (MRSA strain USA300 [4]; [30]): >128
- Compound 217 SIC (MRSA strain USA300 [4]; [31]): 0.03125 µg/mL
- Fold reduction in Compound 217 MIC (MRSA strain USA300 [4]; [31]): 16
- Compound 217 SIC (MRSA strain USA300 [4]; [32]): 0.25 µg/mL
- Fold reduction in Compound 217 MIC (MRSA strain USA300 [4]; [32]): 2
- Compound 217 SIC (MRSA strain USA300 [4]; [33]): 0.01563 µg/mL
- Fold reduction in Compound 217 MIC (MRSA strain USA300 [4]; [33]): 32
- Compound 217 SIC (MRSA strain USA300 [4]; [34]): 0.125 µg/mL
- Fold reduction in Compound 217 MIC (MRSA strain USA300 [4]; [34]): 4
- Compound 217 SIC (MRSA strain USA300 [4]; [35]): 0.125 µg/mL
- Fold reduction in Compound 217 MIC (MRSA strain USA300 [4]; [35]): 4
- Compound 217 SIC (MRSA strain USA300 [4]; [36]): 0.03125 µg/mL
- Fold reduction in Compound 217 MIC (MRSA strain USA300 [4]; [36]): 16
- Compound 217 SIC (MRSA strain USA300 [4]; [37]): 0.0625 µg/mL
- Fold reduction in Compound 217 MIC (MRSA strain USA300 [4]; [37]): 8
- Compound 217 SIC (MRSA strain USA300 [4]; [38]): 0.125 µg/mL
- Fold reduction in Compound 217 MIC (MRSA strain USA300 [4]; [38]): 4
- Compound 217 SIC (MRSA strain USA300 [4]; [39]): 0.0625 µg/mL
- Fold reduction in Compound 217 MIC (MRSA strain USA300 [4]; [39]): 8
- Compound 217 MIC (MRSA strain USA300 [4]; MRSA strain USA300, partner beta-lactam: None): 0.5 µg/mL
- synergy with partner beta-lactam antibiotics (SIC ≤ 1/4 MIC) (MRSA strain USA300 [4]; partner beta-lactam at 1/4x its MIC): synergize
- time-kill: reduction of viable cells, combination vs either agent alone (MRSA strain USA300 [5]): synergistic
